Results published in patent US20230203029A1 (priority 2020, published 2023).
pIC50: −log10 of the molar value.

Experiments:
[1] = target: T1, human MERTK cytoplasmic domain (Homo sapiens, UniProt Q12866); test: biochemical; conditions: 30 uM ATP; read-out: Assay 1a Mer IC50 30 uM ATP
T1 construct: human MERTK cytoplasmic domain (Carna Biosciences 08-108); purchased Carna Biosciences 08-108
Description: Assay 1a—MERTK HTRF KinEASE-TK Assay
The enzymatic reaction was carried out for 30 min at room temperature. 10 μL TK Antibody-Cryptate/Streptavidin-XL665 (Cisbio 610SAXLG) was then added for 60 min, including EDTA containing detection buffer (Cisbio 62SDBRDF) to stop the reaction.

[2] = target: T2, Ba/F3 Pro B-cell line expressing TEL-human MERTK fusion domain (Homo sapiens, UniProt Q12866); assay type: cell-based; conditions: cell survival, 48 h, CellTiter-Glo; read-out: TEL-MERTK Ba/F3 IC50
T2 sequence (Q12866 587-858 limits assumed): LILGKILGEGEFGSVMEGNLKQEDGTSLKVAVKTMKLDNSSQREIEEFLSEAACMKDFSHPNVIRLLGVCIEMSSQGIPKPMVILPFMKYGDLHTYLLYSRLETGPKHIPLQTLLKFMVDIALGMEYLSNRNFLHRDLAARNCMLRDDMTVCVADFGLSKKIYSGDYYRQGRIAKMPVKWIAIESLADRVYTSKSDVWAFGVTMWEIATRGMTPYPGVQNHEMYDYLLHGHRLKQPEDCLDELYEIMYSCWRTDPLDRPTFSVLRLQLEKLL
Description: (§1) Assay 5—Ba/F3 Cell Survival Assays.
(§2) The inhibitory potencies of compounds were assessed in a Ba/F3 cell survival assay, using the Ba/F3 Pro B-cell line, recombinantly expressing a BCR-human AXL kinase domain fusion protein (pACD320/AXL, Advanced Cellular Dynamics Inc), TEL-human MERTK fusion domain (pACD1000/MERTK, Advanced Cellular Dynamics Inc), TEL-human Tyro3 fusion domain (pACD1000/TYRO3, Advanced Cellular Dynamics Inc), or control TEL-none (ACD320, Advanced Cellular Dynamics Inc) BRC-none constructs (ACD1000, Advanced Cellular Dynamics Inc). 10 ng/mL recombinant murine IL3 (R&D, 403-ML-010) was included in the media when propagating negative control TEL-none or BCR-none lines only. […] The final assay DMSO concentration was 0.25%. Compound incubations were conducted for 48 h at 37° C./5% CO2, after which cell plate was equilibrated at room temperature for 20 minutes prior to assessing viability. 15 μl of Promega CellTiter-Glo reagent (G7572) was added to each well for 2 min on an orbital shaker to induce cell lysis.
The plate was then equilibrated for 5 min at room temperature and luminescence read on a BMG Pherastar FSX using the LUM plus optic module. […] Competition curves were then fit to a 4 parameter logistic equation including a variable slope factor to determine the IC50 (compound concentration causing a half-maximal inhibition of cell survival).

[3] = target: T3, Ba/F3 Pro B-cell line expressing TEL-human Tyro3 fusion domain (Homo sapiens, UniProt Q06418); assay type: cell-based; conditions: cell survival, 48 h, CellTiter-Glo
T3 sequence (Q06418 518-790 limits assumed): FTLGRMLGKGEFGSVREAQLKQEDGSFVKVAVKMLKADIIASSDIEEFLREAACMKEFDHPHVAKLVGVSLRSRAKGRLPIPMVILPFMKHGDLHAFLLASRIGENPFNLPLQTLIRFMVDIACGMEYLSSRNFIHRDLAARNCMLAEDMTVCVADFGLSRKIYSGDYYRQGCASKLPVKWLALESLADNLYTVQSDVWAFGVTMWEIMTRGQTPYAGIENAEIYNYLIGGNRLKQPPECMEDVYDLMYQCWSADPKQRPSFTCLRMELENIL
Description: as §1
as §2, with “only. Cells were maintained in RMPI 1640 (Corning 15-040-CV) culture media containing 10% heat inactivated semi-synthetic FBS (RMBIO FGR-BBT), 2 mM L-Glutamine (Sigma, G7513), 100 IU/mL Penicillin-[…] Streptomycin (Sigma, P4333), and 500 ng/mL Puromycin (Sigma, P8833). Experiments were performed in 50 μl growth media, including the test compounds of interest, and dispensing 5000 cells/well in logarithmic-phase growth into a 384 well white Optiplate (Perkin Elmer 6007299).” for “only.”
The plate was then equilibrated for 5 min at room temperature and luminescence read on a BMG Pherastar FSX using the LUM plus optic module. Data were normalised to measurements in the absence of competing compound (0% inhibition). Competition curves were then fit to a 4 parameter logistic equation including a variable slope factor to determine the IC50 (compound concentration causing a half-maximal inhibition of cell survival).

[4] = target: T4, human AXL cytoplasmic domain (Homo sapiens, UniProt P30530); test: Assay 1b AXL HTRF KinEASE-TK assay; assay type: biochemical
T4 construct: human AXL cytoplasmic domain (Thermo Fisher A31515); purchased Thermo Fisher A31515
T4 sequence (P30530 473-894 limits assumed): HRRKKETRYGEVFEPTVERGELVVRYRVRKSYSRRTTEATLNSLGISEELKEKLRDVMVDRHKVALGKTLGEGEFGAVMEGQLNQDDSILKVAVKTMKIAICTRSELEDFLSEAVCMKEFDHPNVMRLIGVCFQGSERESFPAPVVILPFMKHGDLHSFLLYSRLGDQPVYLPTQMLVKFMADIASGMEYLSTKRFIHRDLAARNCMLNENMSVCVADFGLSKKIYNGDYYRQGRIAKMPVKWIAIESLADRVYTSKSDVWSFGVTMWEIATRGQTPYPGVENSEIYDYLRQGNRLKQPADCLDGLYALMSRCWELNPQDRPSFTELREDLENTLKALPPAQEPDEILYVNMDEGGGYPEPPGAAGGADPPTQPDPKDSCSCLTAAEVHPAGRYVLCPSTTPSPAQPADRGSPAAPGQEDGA
Description: Assay 1b—AXL HTRF KinEASE-TK Assay
Compound inhibition of human AXL cytoplasmic domain (Thermo Fisher A31515) enzymatic activity was tested via the HTRF KinEASE-tyrosine kinase (TK) kit (Cisbio 62TK0PEC). Experiments were performed in 20 μl enzymatic buffer (Cisbio 62EZBFDD) supplemented with 5 mM MgCl2, 1 mM MnCl2, 1 mM DTT, 50 nM SEB (Cisbio, 61SEBALB), with 5 nM of AXL and the test compounds of interest. […] The enzymatic reaction was carried out for 30 min at room temperature. 10 μL TK Antibody-Cryptate/Streptavidin-XL665 (Cisbio 610SAXLG) was then added for 60 min, including EDTA containing detection buffer (Cisbio 62SDBRDF) to stop the reaction. The plate was read on a BMG Pherastar FSX using a HTRF 337/620/665 optical module to excite the terbium donor at 337 nm, and record donor emission at 620 nm and acceptor fluorophore emission at 665 nm. From this the FRET ratio (acceptor 665 nm/donor 620 nm) for each data point was calculated. […] Competition curves were then fit to a 4 parameter logistic equation including a variable slope factor to determine the IC50 (compound concentration that inhibits 50% of AXL activity).

T1 sequence (Q12866 527-999): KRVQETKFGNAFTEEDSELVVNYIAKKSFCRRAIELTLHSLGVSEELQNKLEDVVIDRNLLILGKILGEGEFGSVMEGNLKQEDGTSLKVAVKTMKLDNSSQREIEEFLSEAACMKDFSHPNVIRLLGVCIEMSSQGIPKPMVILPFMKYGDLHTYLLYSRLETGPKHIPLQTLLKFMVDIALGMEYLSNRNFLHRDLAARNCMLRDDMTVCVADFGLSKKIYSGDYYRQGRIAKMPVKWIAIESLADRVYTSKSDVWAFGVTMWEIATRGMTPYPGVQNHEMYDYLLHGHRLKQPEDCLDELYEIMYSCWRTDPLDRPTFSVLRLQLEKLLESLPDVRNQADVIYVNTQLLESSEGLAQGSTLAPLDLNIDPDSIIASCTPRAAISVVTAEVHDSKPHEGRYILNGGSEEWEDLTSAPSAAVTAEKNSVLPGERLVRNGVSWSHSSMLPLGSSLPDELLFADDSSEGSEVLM

## CC(C)n1cc(C(=O)Nc2ccc(Oc3ccnc4cnc(C5CCN(C)CC5)cc34)cn2)c(=O)c(-c2ccc(F)cc2)c1 [Example 23, 5-(4-fluorophenyl)-1-isopropyl-N-[5-[[6-(1-methyl-4-piperidyl)-1,7-naphthyridin-4-yl]oxy]-2-pyridyl]-4-oxo-pyridine-3-carboxamide]
[1]
  pIC50: 8.52
[2]
  pIC50: 8.70
[3]
  pIC50: 6.37
[4]
  pIC50: 7.92

## Cc1c(C(=O)Nc2ccc(Oc3ccnc4cnc(N5CCNCC5)cc34)cc2)c(=O)n(-c2ccccc2)n1C [Example 12.8, 1,5-dimethyl-3-oxo-2-phenyl-N-[4-[(6-piperazin-1-yl-1,7-naphthyridin-4-yl)oxy]phenyl]pyrazole-4-carboxamide]
[1]
  pIC50: 6.87

## O=C(Nc1ccc(Oc2ccnc3cnc(N4CCNCC4)cc23)cc1)c1c[nH]cc(-c2ccc(F)cc2)c1=O [Example 12.7, 5-(4-fluorophenyl)-4-oxo-N-[4-[(6-piperazin-1-yl-1,7-naphthyridin-4-yl)oxy]phenyl]-1H-pyridine-3-carboxamide]
[1]
  pIC50: 7.80
[4]
  pIC50: 7.44

## CN1CCC(NC(=O)c2cc3c(Oc4cnc(NC(=O)c5cccn(-c6ccc(F)cc6)c5=O)nc4)ccnc3cn2)CC1 [Example 19, 4-[2-[[1-(4-Fluorophenyl)-2-oxo-pyridine-3-carbonyl]amino]pyrimidin-5-yl]oxy-N-(1-methyl-4-piperidyl)-1,7-naphthyridine-6-carboxamide]
[1]
  pIC50: 6.86

## CN1CCC(NC(=O)c2cc3c(Oc4ccc(NC(=O)c5cccn(-c6ccccn6)c5=O)cc4)ccnc3cn2)CC1 [Example 8, N-(1-methyl-4-piperidyl)-4-[4-[[2-oxo-1-(2-pyridyl)pyridine-3-carbonyl]amino]phenoxy]-1,7-naphthyridine-6-carboxamide]
[1]
  pIC50: 6.81

## CN1CCC(C(=O)Nc2cc3c(Oc4ccc(NC(=O)c5cccn(-c6ccc(F)cc6)c5=O)nc4)ccnc3cn2)CC1 [Example 18.1, 1-(4-fluorophenyl)-N-[5-[[6-[(1-methylpiperidine-4-carbonyl)amino]-1,7-naphthyridin-4-yl]oxy]-2-pyridyl]-2-oxo-pyridine-3-carboxamide]
[1]
  pIC50: 9.00
[2]
  pIC50: 7.89
[3]
  pIC50: 6.60
[4]
  pIC50: 8.00

## O=C(Nc1ccc(Nc2ccnc3cnc(C(=O)N4CCC4)cc23)cc1)c1cccn(-c2ccccc2)c1=O [Example 5.4, N-[4-[[6-(azetidine-1-carbonyl)-1,7-naphthyridin-4-yl]amino]phenyl]-2-oxo-1-phenyl-pyridine-3-carboxamide]
[1]
  pIC50: 6.27

## CC(C)n1cc(C(=O)Nc2ccc(Nc3ccnc4cnc(C(=O)NOCCO)cc34)cc2)c(=O)n(-c2ccc(F)cc2)c1=O [Example 7, 4-[4-[[3-(4-fluorophenyl)-1-isopropyl-2,4-dioxo-pyrimidine-5-carbonyl]amino]anilino]-N-(2-hydroxyethoxy)-1,7-naphthyridine-6-carboxamide]
[1]
  pIC50: 6.41

## Cc1c(C(=O)Nc2ccc(Oc3ccnc4cnc(C(=O)NC5CCN(C)CC5)cc34)cc2)c(=O)n(-c2ccccc2)n1CC(C)(C)O [Example 8.4, 4-[4-[[1-(2-hydroxy-2-methyl-propyl)-5-methyl-3-oxo-2-phenyl-pyrazole-4-carbonyl]amino]phenoxy]-N-(1-methyl-4-piperidyl)-1,7-naphthyridine-6-carboxamide]
[1]
  pIC50: 6.61

## CC(C)n1cc(C(=O)Nc2ccc(Oc3ccnc4cnc(C5CCN(C)CC5)cc34)cn2)c(=O)n(-c2ccc(F)cc2)c1=O [Example 23.1, 3-(4-fluorophenyl)-1-isopropyl-N-[5-[[6-(1-methyl-4-piperidyl)-1,7-naphthyridin-4-yl]oxy]-2-pyridyl]-2,4-dioxo-pyrimidine-5-carboxamide]
[1]
  pIC50: 7.89
[2]
  pIC50: 7.82
[3]
  pIC50: 6.25

## CC(C)n1cc(C(=O)Nc2ccc(Nc3ccnc4cnc(C(=O)NCCN(C)C)cc34)cc2)c(=O)n(-c2ccc(F)cc2)c1=O [Example 7.1, N-[2-(dimethylamino)ethyl]-4-[4-[[3-(4-fluorophenyl)-1-isopropyl-2,4-dioxo-pyrimidine-5-carbonyl]amino]anilino]-1,7-naphthyridine-6-carboxamide]
[1]
  pIC50: 7.27

## O=C(Nc1ccc(Oc2ccnc3cnc(N4CCNCC4)cc23)cc1)c1cccn(-c2ccccn2)c1=O [Example 12.1, 2-oxo-N-[4-[(6-piperazin-1-yl-1,7-naphthyridin-4-yl)oxy]phenyl]-1-(2-pyridyl)pyridine-3-carboxamide]
[1]
  pIC50: 6.14

## Cc1c(C(=O)Nc2ccc(Oc3ccnc4cnc(C(=O)NC5CCN(C)CC5)cc34)cc2)c(=O)n(-c2ccccc2)n1C [Example 8.3, 4-[4-[(1,5-Dimethyl-3-oxo-2-phenyl-pyrazole-4-carbonyl)amino]phenoxy]-N-(1-methyl-4-piperidyl)-1,7-naphthyridine-6-carboxamide]
[1]
  pIC50: 6.88
